Results taken from ChEMBL document CHEMBL3991601, “The target landscape of clinical kinase drugs” (Science, 2017).
Activity calls are given as the source filed them.

Target: T1, Glycogen phosphorylase, liver form (Homo sapiens, UniProt P06737)
T1 sequence (P06737 whole entry): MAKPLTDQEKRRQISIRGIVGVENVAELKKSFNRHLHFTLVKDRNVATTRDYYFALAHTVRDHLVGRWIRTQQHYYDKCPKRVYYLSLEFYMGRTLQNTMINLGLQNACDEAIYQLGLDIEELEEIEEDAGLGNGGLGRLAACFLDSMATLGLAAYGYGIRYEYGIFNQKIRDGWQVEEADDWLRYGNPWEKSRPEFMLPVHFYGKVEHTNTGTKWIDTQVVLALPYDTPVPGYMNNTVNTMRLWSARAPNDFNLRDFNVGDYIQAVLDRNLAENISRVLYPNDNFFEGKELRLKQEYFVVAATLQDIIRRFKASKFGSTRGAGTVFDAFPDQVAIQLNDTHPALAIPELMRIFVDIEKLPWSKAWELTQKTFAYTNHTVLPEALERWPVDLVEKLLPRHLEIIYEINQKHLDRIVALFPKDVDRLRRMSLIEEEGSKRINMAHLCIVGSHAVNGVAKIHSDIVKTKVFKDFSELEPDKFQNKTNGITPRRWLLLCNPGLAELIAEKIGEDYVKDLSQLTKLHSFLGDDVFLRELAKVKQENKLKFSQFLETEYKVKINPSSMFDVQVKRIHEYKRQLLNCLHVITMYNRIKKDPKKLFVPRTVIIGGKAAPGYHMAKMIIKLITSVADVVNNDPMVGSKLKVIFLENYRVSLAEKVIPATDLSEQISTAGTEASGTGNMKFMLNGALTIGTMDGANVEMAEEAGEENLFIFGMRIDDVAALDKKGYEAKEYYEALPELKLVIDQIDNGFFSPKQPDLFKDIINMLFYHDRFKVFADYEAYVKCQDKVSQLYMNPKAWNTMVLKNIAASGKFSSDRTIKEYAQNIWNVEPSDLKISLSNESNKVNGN
Format: subcellular, K-562, COLO 205, SK-N-BE(2) and MV-4-11, Cell lysate
Conditions: read-out: Kd apparent
Further: in the data inactive means no Kd found up to 30 µM.

Question: Which Kd does the source give for `CNS(=O)(=O)Nc1nccc(Cc2c(C)c3ccc(Oc4ncccn4)cc3oc2=O)c1F` [AVUTOMETINIB] here?
Answer: The Kd was > 30 µM (inactive).

Question: How did the Kd turn out when `COc1ccc(-c2ccc3c(N4CCOC[C@@H]4C)nc(N4CCOC[C@@H]4C)nc3n2)cc1CO` [AZD-8055] was run?
Answer: Its Kd is > 30 µM (inactive).

Question: For `C[C@@H](Nc1cc(F)cc(F)c1)c1cc(C(=O)N(C)C)cc2c(=O)cc(N3CCOCC3)oc12` [AZD-8186], which Kd is on record?
Answer: Its Kd is > 30 µM (inactive).

Target: T2, Peroxisomal acyl-coenzyme A oxidase 3 (Homo sapiens, UniProt O15254)
T2 sequence (O15254 whole entry): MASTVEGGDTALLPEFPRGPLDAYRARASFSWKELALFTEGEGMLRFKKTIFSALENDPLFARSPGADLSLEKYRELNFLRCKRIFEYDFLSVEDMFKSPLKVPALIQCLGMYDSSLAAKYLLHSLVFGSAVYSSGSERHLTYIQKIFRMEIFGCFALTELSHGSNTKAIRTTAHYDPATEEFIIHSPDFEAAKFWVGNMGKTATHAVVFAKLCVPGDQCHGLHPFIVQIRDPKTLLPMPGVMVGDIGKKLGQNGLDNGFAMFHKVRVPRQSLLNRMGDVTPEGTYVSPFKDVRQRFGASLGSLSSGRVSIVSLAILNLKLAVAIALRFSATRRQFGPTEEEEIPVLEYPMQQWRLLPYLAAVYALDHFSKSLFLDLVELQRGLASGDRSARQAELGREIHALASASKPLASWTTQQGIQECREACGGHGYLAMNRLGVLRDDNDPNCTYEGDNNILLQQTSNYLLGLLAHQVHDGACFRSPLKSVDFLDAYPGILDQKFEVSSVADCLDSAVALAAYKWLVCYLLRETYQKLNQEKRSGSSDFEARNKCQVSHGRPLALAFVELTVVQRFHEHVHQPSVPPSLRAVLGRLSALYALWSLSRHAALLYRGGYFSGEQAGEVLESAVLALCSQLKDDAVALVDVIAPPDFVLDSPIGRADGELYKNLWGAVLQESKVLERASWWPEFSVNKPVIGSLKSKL
Conditions: not given

Question: How did the Kd turn out when `CNS(=O)(=O)Nc1nccc(Cc2c(C)c3ccc(Oc4ncccn4)cc3oc2=O)c1F` [AVUTOMETINIB] was run?
Answer: The Kd was > 30 µM (inactive).

Question: How did the Kd turn out when `COc1ccc(-c2ccc3c(N4CCOC[C@@H]4C)nc(N4CCOC[C@@H]4C)nc3n2)cc1CO` [AZD-8055] was run?
Answer: Its Kd is > 30 µM (inactive).

Question: How did the Kd turn out when `C[C@@H](Nc1cc(F)cc(F)c1)c1cc(C(=O)N(C)C)cc2c(=O)cc(N3CCOCC3)oc12` [AZD-8186] was run?
Answer: Its Kd is > 30 µM (inactive).

Target: Activin receptor type-2B (Homo sapiens, UniProt Q13705)
Conditions: not given

Chain of Activin receptor type-2B (Q13705 whole entry): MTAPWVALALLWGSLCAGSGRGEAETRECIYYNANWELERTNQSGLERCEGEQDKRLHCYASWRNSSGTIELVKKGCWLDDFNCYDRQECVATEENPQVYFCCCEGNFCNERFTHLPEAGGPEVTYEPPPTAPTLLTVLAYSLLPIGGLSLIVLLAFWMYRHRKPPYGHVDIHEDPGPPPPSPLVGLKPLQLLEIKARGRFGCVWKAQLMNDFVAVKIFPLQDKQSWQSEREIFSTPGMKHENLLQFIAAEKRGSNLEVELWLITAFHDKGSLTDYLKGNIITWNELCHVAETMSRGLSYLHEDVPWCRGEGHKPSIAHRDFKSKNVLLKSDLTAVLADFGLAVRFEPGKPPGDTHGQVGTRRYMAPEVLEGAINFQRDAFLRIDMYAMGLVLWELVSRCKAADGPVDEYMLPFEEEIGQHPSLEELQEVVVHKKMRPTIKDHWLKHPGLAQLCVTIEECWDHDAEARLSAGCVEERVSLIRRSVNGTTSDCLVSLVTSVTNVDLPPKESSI

Question: For `CNS(=O)(=O)Nc1nccc(Cc2c(C)c3ccc(Oc4ncccn4)cc3oc2=O)c1F` [AVUTOMETINIB], which Kd is on record?
Answer: Its Kd is > 30 µM (inactive).

Question: Which Kd does the source give for `COc1ccc(-c2ccc3c(N4CCOC[C@@H]4C)nc(N4CCOC[C@@H]4C)nc3n2)cc1CO` [AZD-8055] here?
Answer: Its Kd is > 30 µM (inactive).

Question: Which Kd does the source give for `C[C@@H](Nc1cc(F)cc(F)c1)c1cc(C(=O)N(C)C)cc2c(=O)cc(N3CCOCC3)oc12` [AZD-8186] here?
Answer: The Kd was > 30 µM (inactive).

Target: Serine/threonine-protein kinase MRCK beta (Homo sapiens, UniProt Q9Y5S2)
Conditions: not given

Chain of Serine/threonine-protein kinase MRCK beta (Q9Y5S2 whole entry): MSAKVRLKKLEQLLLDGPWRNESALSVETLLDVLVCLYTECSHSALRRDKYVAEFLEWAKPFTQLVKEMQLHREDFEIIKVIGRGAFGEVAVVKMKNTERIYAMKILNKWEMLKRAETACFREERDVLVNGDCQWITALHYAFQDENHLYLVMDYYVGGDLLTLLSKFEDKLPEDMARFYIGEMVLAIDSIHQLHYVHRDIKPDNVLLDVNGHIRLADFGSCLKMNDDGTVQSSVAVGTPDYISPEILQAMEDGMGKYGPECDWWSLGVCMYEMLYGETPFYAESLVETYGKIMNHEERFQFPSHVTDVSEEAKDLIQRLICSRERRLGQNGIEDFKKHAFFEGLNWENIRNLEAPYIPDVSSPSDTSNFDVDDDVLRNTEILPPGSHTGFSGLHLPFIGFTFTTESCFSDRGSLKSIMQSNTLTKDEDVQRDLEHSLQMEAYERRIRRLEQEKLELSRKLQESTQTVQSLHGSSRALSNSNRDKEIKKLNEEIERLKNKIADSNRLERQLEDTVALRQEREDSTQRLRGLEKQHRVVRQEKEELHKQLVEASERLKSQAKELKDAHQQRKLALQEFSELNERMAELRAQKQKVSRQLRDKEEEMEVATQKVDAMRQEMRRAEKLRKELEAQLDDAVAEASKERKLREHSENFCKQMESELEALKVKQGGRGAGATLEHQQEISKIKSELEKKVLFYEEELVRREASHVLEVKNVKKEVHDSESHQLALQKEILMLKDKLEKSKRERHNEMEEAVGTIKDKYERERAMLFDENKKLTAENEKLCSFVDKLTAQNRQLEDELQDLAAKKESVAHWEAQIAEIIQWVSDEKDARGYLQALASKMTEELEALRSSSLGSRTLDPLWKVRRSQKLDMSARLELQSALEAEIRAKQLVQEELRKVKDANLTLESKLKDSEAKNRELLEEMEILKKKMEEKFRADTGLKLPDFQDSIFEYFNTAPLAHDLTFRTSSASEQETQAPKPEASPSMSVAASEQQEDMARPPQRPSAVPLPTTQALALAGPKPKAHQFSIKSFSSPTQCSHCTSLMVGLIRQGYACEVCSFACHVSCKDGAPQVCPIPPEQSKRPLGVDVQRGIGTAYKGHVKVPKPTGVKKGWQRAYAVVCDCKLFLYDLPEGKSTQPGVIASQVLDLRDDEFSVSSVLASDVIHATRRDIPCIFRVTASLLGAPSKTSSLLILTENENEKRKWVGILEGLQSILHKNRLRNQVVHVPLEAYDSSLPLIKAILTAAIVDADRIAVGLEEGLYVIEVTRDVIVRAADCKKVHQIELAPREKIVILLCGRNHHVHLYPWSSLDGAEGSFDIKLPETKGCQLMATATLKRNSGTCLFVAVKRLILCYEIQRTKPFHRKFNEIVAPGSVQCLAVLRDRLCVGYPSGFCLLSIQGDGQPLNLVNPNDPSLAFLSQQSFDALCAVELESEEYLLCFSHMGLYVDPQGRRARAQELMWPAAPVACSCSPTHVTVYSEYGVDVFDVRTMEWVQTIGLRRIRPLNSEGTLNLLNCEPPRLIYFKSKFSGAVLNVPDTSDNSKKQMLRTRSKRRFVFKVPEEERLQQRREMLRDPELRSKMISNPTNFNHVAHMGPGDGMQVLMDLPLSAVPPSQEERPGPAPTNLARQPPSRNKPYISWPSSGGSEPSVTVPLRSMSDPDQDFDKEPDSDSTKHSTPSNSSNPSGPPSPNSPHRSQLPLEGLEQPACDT

Question: For `CNS(=O)(=O)Nc1nccc(Cc2c(C)c3ccc(Oc4ncccn4)cc3oc2=O)c1F` [AVUTOMETINIB], which Kd is on record?
Answer: The Kd was > 30 µM (inactive).

Question: With `COc1ccc(-c2ccc3c(N4CCOC[C@@H]4C)nc(N4CCOC[C@@H]4C)nc3n2)cc1CO` [AZD-8055] as the molecule, how does the Kd read?
Answer: The Kd was > 30 µM (inactive).

Question: With `C[C@@H](Nc1cc(F)cc(F)c1)c1cc(C(=O)N(C)C)cc2c(=O)cc(N3CCOCC3)oc12` [AZD-8186] as the molecule, how does the Kd read?
Answer: Its Kd is > 30 µM (inactive).

Target: Cyclin-dependent kinase 4 (Homo sapiens, UniProt P11802)
Conditions: not given

Chain of Cyclin-dependent kinase 4 (P11802 whole entry): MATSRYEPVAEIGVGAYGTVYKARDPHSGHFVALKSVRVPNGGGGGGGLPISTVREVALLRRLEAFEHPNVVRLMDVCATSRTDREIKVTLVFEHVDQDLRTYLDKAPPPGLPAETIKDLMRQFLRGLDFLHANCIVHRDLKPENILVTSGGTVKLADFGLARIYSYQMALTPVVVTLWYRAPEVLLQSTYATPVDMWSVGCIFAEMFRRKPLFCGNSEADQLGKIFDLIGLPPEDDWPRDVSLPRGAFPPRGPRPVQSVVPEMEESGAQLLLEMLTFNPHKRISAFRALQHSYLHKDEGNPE

Question: With `CNS(=O)(=O)Nc1nccc(Cc2c(C)c3ccc(Oc4ncccn4)cc3oc2=O)c1F` [AVUTOMETINIB] as the molecule, how does the Kd read?
Answer: The Kd was > 30 µM (inactive).

Question: For `COc1ccc(-c2ccc3c(N4CCOC[C@@H]4C)nc(N4CCOC[C@@H]4C)nc3n2)cc1CO` [AZD-8055], which Kd is on record?
Answer: The Kd was > 30 µM (inactive).

Question: With `C[C@@H](Nc1cc(F)cc(F)c1)c1cc(C(=O)N(C)C)cc2c(=O)cc(N3CCOCC3)oc12` [AZD-8186] as the molecule, how does the Kd read?
Answer: The Kd was > 30 µM (inactive).

Target: T3, Delta(24)-sterol reductase (Homo sapiens, UniProt Q15392)
T3 sequence (Q15392 whole entry): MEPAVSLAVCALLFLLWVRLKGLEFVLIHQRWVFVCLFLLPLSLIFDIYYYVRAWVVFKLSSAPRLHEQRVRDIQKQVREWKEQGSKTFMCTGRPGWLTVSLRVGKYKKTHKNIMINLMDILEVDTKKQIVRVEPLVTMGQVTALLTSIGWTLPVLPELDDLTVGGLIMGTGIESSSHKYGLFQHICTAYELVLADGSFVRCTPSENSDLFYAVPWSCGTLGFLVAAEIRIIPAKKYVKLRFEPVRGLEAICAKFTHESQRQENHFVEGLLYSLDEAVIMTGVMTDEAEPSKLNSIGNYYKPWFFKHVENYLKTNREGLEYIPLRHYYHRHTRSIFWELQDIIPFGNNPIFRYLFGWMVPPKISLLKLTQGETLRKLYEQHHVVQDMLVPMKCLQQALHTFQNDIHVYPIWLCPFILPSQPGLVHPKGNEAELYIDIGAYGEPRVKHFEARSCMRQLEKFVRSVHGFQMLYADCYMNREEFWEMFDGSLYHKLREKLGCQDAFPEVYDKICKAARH
Conditions: not given

Question: Which Kd does the source give for `CNS(=O)(=O)Nc1nccc(Cc2c(C)c3ccc(Oc4ncccn4)cc3oc2=O)c1F` [AVUTOMETINIB] here?
Answer: The Kd was > 30 µM (inactive).

Question: `COc1ccc(-c2ccc3c(N4CCOC[C@@H]4C)nc(N4CCOC[C@@H]4C)nc3n2)cc1CO` [AZD-8055] was tested. Which Kd did it give?
Answer: The Kd was > 30 µM (inactive).

Question: With `C[C@@H](Nc1cc(F)cc(F)c1)c1cc(C(=O)N(C)C)cc2c(=O)cc(N3CCOCC3)oc12` [AZD-8186] as the molecule, how does the Kd read?
Answer: The Kd was > 30 µM (inactive).

Target: Tyrosine-protein kinase Fyn (Homo sapiens, UniProt P06241)
Conditions: not given

Chain of Tyrosine-protein kinase Fyn (P06241 whole entry): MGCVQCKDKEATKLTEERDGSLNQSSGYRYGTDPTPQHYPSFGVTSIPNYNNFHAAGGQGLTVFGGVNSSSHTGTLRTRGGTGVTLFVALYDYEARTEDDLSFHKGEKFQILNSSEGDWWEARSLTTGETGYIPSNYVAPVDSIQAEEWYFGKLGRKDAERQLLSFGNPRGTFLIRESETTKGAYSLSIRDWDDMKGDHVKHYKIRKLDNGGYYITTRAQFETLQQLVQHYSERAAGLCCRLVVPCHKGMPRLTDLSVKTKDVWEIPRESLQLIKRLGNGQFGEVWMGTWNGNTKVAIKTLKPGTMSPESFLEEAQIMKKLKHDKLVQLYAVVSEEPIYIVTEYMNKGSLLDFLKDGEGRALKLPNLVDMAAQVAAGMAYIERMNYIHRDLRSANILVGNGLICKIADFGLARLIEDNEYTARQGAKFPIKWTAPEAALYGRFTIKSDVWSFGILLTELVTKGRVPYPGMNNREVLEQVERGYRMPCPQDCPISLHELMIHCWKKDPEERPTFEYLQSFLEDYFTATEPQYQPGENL

Question: Which Kd does the source give for `CNS(=O)(=O)Nc1nccc(Cc2c(C)c3ccc(Oc4ncccn4)cc3oc2=O)c1F` [AVUTOMETINIB] here?
Answer: The Kd was > 30 µM (inactive).

Question: `COc1ccc(-c2ccc3c(N4CCOC[C@@H]4C)nc(N4CCOC[C@@H]4C)nc3n2)cc1CO` [AZD-8055] was tested. Which Kd did it give?
Answer: Its Kd is > 30 µM (inactive).

Question: `C[C@@H](Nc1cc(F)cc(F)c1)c1cc(C(=O)N(C)C)cc2c(=O)cc(N3CCOCC3)oc12` [AZD-8186] was tested. Which Kd did it give?
Answer: The Kd was > 30 µM (inactive).

Target: Mitogen-activated protein kinase 8 (Homo sapiens, UniProt P45983)
Conditions: not given

Chain of Mitogen-activated protein kinase 8 (P45983 whole entry): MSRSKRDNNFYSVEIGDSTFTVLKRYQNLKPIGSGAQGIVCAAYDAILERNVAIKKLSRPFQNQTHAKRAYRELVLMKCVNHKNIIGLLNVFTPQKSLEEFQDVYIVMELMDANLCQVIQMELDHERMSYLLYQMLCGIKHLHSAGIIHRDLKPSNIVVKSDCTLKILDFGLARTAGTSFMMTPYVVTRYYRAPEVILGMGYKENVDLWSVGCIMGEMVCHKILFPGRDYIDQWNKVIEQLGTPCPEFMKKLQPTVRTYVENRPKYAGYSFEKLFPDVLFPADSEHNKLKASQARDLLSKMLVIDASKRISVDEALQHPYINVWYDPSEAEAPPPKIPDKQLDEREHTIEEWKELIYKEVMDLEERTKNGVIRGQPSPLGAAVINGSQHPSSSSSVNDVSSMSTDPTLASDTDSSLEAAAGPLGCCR

Question: Which Kd does the source give for `CNS(=O)(=O)Nc1nccc(Cc2c(C)c3ccc(Oc4ncccn4)cc3oc2=O)c1F` [AVUTOMETINIB] here?
Answer: The Kd was > 30 µM (inactive).

Question: `COc1ccc(-c2ccc3c(N4CCOC[C@@H]4C)nc(N4CCOC[C@@H]4C)nc3n2)cc1CO` [AZD-8055] was tested. Which Kd did it give?
Answer: The Kd was > 30 µM (inactive).

Question: With `C[C@@H](Nc1cc(F)cc(F)c1)c1cc(C(=O)N(C)C)cc2c(=O)cc(N3CCOCC3)oc12` [AZD-8186] as the molecule, how does the Kd read?
Answer: The Kd was > 30 µM (inactive).

Target: cAMP-dependent protein kinase catalytic subunit beta (Homo sapiens, UniProt P22694)
Conditions: not given

Question: Which Kd does the source give for `CNS(=O)(=O)Nc1nccc(Cc2c(C)c3ccc(Oc4ncccn4)cc3oc2=O)c1F` [AVUTOMETINIB] here?
Answer: Its Kd is > 30 µM (inactive).

Question: `COc1ccc(-c2ccc3c(N4CCOC[C@@H]4C)nc(N4CCOC[C@@H]4C)nc3n2)cc1CO` [AZD-8055] was tested. Which Kd did it give?
Answer: The Kd was > 30 µM (inactive).

Question: With `C[C@@H](Nc1cc(F)cc(F)c1)c1cc(C(=O)N(C)C)cc2c(=O)cc(N3CCOCC3)oc12` [AZD-8186] as the molecule, how does the Kd read?
Answer: The Kd was > 30 µM (inactive).

Target: T4, Succinate--CoA ligase [ADP-forming] subunit beta, mitochondrial (Homo sapiens, UniProt Q9P2R7)
T4 sequence (Q9P2R7 whole entry): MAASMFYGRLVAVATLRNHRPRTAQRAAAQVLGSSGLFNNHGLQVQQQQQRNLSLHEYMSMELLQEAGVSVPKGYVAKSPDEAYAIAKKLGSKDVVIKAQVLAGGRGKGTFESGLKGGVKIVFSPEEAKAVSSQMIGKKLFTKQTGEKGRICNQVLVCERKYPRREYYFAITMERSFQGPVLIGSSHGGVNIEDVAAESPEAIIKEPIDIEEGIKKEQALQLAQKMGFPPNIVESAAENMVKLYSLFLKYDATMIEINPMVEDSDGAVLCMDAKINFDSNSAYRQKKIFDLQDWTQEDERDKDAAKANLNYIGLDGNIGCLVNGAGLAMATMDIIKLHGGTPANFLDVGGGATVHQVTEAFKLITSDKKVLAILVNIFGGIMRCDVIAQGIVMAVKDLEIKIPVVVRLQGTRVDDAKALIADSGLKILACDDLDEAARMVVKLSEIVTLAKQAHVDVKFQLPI
Conditions: not given

Question: How did the Kd turn out when `CNS(=O)(=O)Nc1nccc(Cc2c(C)c3ccc(Oc4ncccn4)cc3oc2=O)c1F` [AVUTOMETINIB] was run?
Answer: The Kd was > 30 µM (inactive).

Question: With `COc1ccc(-c2ccc3c(N4CCOC[C@@H]4C)nc(N4CCOC[C@@H]4C)nc3n2)cc1CO` [AZD-8055] as the molecule, how does the Kd read?
Answer: Its Kd is > 30 µM (inactive).

Question: `C[C@@H](Nc1cc(F)cc(F)c1)c1cc(C(=O)N(C)C)cc2c(=O)cc(N3CCOCC3)oc12` [AZD-8186] was tested. Which Kd did it give?
Answer: The Kd was > 30 µM (inactive).

Target: Tyrosine-protein kinase SYK (Homo sapiens, UniProt P43405)
Conditions: not given

Question: For `CNS(=O)(=O)Nc1nccc(Cc2c(C)c3ccc(Oc4ncccn4)cc3oc2=O)c1F` [AVUTOMETINIB], which Kd is on record?
Answer: Its Kd is > 30 µM (inactive).

Question: For `COc1ccc(-c2ccc3c(N4CCOC[C@@H]4C)nc(N4CCOC[C@@H]4C)nc3n2)cc1CO` [AZD-8055], which Kd is on record?
Answer: Its Kd is > 30 µM (inactive).

Question: For `C[C@@H](Nc1cc(F)cc(F)c1)c1cc(C(=O)N(C)C)cc2c(=O)cc(N3CCOCC3)oc12` [AZD-8186], which Kd is on record?
Answer: Its Kd is > 30 µM (inactive).
